IC50 data for 9 molecules are collected here from ChEMBL document CHEMBL3352389, “Evaluation of class I HDAC isoform selectivity of largazole analogues” (Bioorg Med Chem Lett, 2014).

Experiment [1] has as its target T1, Histone deacetylase 8 (Homo sapiens, UniProt Q9BY41).
T1 sequence (Q9BY41 whole entry): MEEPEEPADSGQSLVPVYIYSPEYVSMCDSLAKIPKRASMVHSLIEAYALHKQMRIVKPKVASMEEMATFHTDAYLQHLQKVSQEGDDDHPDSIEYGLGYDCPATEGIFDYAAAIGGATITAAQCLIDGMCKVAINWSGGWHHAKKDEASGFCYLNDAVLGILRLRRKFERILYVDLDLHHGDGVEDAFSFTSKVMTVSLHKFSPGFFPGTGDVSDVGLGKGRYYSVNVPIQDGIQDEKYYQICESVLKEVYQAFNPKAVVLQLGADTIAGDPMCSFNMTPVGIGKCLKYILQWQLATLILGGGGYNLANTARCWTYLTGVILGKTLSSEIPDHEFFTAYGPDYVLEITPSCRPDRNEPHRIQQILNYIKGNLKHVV
In words: Inhibition of HDAC8 (unknown origin) incubated at 37 degC for 30 mins.

Experiment [2] deals with Histone deacetylase 2 (Homo sapiens, UniProt Q92769). The experiment can be described thus: Inhibition of HDAC2 (unknown origin) incubated at 37 degC for 30 mins.
Sequence of Histone deacetylase 2 (Q92769 whole entry): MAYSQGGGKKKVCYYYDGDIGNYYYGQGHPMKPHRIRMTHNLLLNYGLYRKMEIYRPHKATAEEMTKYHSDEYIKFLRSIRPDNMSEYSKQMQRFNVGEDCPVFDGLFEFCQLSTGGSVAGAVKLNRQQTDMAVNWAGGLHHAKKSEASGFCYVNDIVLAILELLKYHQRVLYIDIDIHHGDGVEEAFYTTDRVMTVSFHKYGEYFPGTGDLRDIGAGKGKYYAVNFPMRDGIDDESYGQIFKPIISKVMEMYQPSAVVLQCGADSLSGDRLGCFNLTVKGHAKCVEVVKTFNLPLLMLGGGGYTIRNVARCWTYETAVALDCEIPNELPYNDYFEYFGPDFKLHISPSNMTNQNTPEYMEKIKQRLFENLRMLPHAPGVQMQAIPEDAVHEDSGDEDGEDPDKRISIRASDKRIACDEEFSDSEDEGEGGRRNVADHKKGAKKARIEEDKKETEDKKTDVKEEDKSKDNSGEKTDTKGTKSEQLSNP
The target of experiment [3] is Histone deacetylase 1 (Homo sapiens, UniProt Q13547). In words: Inhibition of HDAC1 (unknown origin) incubated at 37 degC for 30 mins.
Sequence of Histone deacetylase 1 (Q13547 whole entry): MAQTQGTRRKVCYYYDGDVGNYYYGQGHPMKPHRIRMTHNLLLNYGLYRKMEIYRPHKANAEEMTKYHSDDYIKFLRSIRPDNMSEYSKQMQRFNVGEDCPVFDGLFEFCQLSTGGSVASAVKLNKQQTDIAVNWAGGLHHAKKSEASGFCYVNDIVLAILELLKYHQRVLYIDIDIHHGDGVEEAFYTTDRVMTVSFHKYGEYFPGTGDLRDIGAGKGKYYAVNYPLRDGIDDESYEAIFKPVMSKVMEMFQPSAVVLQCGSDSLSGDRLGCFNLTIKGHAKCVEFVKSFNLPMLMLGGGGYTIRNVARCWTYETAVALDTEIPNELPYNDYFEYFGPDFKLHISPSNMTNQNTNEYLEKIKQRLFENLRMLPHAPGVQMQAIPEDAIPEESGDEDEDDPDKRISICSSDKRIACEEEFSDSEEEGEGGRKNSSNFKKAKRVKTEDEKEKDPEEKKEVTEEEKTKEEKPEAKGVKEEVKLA
In experiment [4] the target is Histone deacetylase 3 (Homo sapiens, UniProt O15379). In words: Inhibition of HDAC3 (unknown origin) incubated at 37 degC for 30 mins.
Sequence of Histone deacetylase 3 (O15379 whole entry): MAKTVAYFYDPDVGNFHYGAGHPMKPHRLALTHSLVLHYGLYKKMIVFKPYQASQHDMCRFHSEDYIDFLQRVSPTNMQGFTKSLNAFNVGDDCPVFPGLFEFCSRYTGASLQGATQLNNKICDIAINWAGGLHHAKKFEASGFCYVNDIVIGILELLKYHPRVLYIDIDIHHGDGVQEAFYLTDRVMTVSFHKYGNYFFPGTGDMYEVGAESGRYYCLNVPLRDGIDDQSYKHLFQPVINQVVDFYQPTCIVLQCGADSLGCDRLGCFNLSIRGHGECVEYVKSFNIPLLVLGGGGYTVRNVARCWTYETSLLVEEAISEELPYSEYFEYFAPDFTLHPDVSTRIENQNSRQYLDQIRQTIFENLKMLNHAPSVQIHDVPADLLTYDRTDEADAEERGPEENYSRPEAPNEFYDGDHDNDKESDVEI

`CC(C)(C)OC(=O)NCCC[C@@H]1NC(=O)[C@]2(C)CSC(=N2)c2csc(n2)CNC(=O)C[C@@H](/C=C/CCS)OC1=O`: the IC50 (commonly the point on the concentration scale where inhibition reaches its midpoint) in experiment [1] (read-out: IC50) amounted to 790 nM; in experiment [2], 1.4 nM; in experiment [3] it was 0.96 nM; in experiment [4], 1.8 nM.
As for `C[C@@]12CSC(=N1)c1csc(n1)CNC(=O)C[C@@H](/C=C/CCS)OC(=O)[C@H](CC(=O)O)NC2=O`, the IC50 result in experiment [1] is “Not Active”; in experiment [2], 150 nM; in experiment [3] it was 39 nM; in experiment [4], 100 nM.
Consider `CC(C)(C)OC(=O)n1cnc(C[C@@H]2NC(=O)[C@]3(C)CSC(=N3)c3csc(n3)CNC(=O)C[C@@H](/C=C/CCS)OC2=O)c1`, for which the IC50 in experiment [1] (read-out: IC50) was determined as 540 nM; in experiment [3] it was 0.62 nM.
Take `C[C@@]12CSC(=N1)c1csc(n1)CNC(=O)C[C@@H](/C=C/CCS)OC(=O)[C@H](CCN)NC2=O`: the 50% inhibitory concentration (IC50) entry in experiment [1] is “Not Active”; in experiment [2], 21 nM; in experiment [3], 5.5 nM; in experiment [4], 7.8 nM.
On to `C[C@@]12CSC(=N1)c1csc(n1)CNC(=O)C[C@@H](/C=C/CCS)OC(=O)[C@H](CCCN)NC2=O`, for which the IC50 entry in experiment [1] was “Not Active”; in experiment [2], 6.3 nM; in experiment [3], 3.3 nM; in experiment [4], 6 nM.
On the same counts, the results for `CC(C)(C)OC(=O)NCC[C@@H]1NC(=O)[C@]2(C)CSC(=N2)c2csc(n2)CNC(=O)C[C@@H](/C=C/CCS)OC1=O` are “Not Active”, 3.1 nM, 2.3 nM and 4.2 nM.
On the same counts, the results for `C[C@@]12CSC(=N1)c1csc(n1)CNC(=O)C[C@@H](/C=C/CCS)OC(=O)[C@H](Cc1c[nH]cn1)NC2=O` are “Not Active”, 1.4 nM, 0.2 nM and 1.1 nM.
For `C[C@@]12CSC(=N1)c1csc(n1)CNC(=O)C[C@@H](/C=C/CCS)OC(=O)[C@H](Cc1ccccc1)NC2=O` the same measures were “Not Active”, 1.7 nM, 0.29 nM and 0.68 nM.
With `C[C@@]12CSC(=N1)c1csc(n1)CNC(=O)C[C@@H](/C=C/CCS)OC(=O)[C@H](Cc1ccc(O)cc1)NC2=O`, the IC50 entry in experiment [1] is “Not Active”; in experiment [2], 1.1 nM; in experiment [3], 0.21 nM; in experiment [4], 0.38 nM.
